Five compounds from US10709784B2, “Metal chelating compositions and methods for controlling the growth or activities of a living cell or organism” (CHELATION PARTNERS INCORPORATED, priority 2011, dated 2020) can be followed below.

The test system of test [1] is E. coli. The test can be described thus: MIC of chelators in Fe-restricted RPMI. Type of test: cell-based, Escherichia coli. The note with it: Escherichia coli. As to the method: (§1) Soluble chelating compositions prepared as in example 4 and example 6 as well as the commercially clinically used low molecular weight (<1500 Da) chelators desferal (Novartis Pharmaceutical Company) and deferiprone (Apotex Pharmaceutical Company) were tested as to their MICs against representative pathogenic bacterial species in RPMI medium that had been treated as in example 38 but to which Fe was re-added to known concentrations that permitted growth of the bacteria under partially Fe restrictive conditions, i.e., so as to simulate the low Fe environmental supply available during infection by these bacteria in man or other animals. MIC testing was done in a manner similar to that described for example 15 but with test series being conducted in multi-well microtiter plates, each well providing a separate treatment test.
(§2) The clinically used chelators were not inhibitory in the case of Pseudomonas aeruginosa with no inhibition observed at the highest concentration tested (300 μg/ml for desferal and 100 μg/ml for deferiprone). Staphylococcus aureus was not inhibited by desferal and was inhibited by deferiprone to a lesser extent than for the soluble compositions of the present invention. Conversely, Escherichia coli was not inhibited by deferiprone but was inhibited substantially by desferal.

The test system of test [2] is P. aeruginosa. The test can be described thus: MIC of chelators in Fe-restricted RPMI. Type of test: cell-based, Pseudomonas aeruginosa. The procedure: as §1, §2
The subject of test [3] is S. aureus. Put plainly: MIC of chelators in Fe-restricted RPMI. Type of test: cell-based. The note with it: Staphylococcus aureus. The procedure: as §1, §2
The test system of test [4] is Candida albicans ATCC 10231. The test can be described thus: Growth with chelating materials of different molecular weight, 84 hours. The note with it: 30° C., defined medium without added iron, FIG. 8. The test is classed as cell-based. As to the method:
Candida albicans ATCC 10231 was tested for its sensitivities to: the medical chelator deferiprone (#1 in the graph of FIG. 8) (a product of Apotex Pharmaceuticals); the precursor chemicals used for the preparation of soluble chelating compositions of the present invention, including 3-hydroxy-2-methyl-4-pyrone (#2 in the graph of FIG. 8), AHMP as from Example 1 (#3 in the graph of FIG. 8) and MAHMP as from Example 2 (#4 in the graph of FIG. 8) and also the soluble chelating composition as from Example 4 (#5 in the graph of FIG. 8). The yeast was grown in defined medium as for Example 18 with no additional added iron (i.e., the only but adequate Fe available for the yeast was contributed from being present along with the other added medium components). Growth of the yeast in the defined media with added test chelating materials was compared to control samples that had not received any of the chelating materials following 84 hours of incubation and growth at 30° C. […] These chelators being internalized by the yeast were incapable of restricting iron supply to the yeast cells. […] Thus, low molecular weight chelators such as deferiprone and similar compounds permitted growth while the soluble chelating composition that contained functional groups similar to deferiprone but was a molecular weight higher than 1500 Daltons restricted growth, eventhough the various compounds tested were each capable of binding iron through their pyridinone functionality.

For test [5], the system named is Candida albicans ATCC 10231. Put plainly: Challenge growth test, fluconazole and chelator within a semi-permeable device. Type of test: cell-based. An excerpt:
In one such culture, only medium was present as a control. […] The chelator was not added directly to the culture medium but was provided as within a dialysis membrane within the culture medium, such that only the external surfaces of the dialysis membrane device were in contact with the bulk of the culture medium, the chelator being within the membrane bag. The dialysis membrane was of the same type that had been used to prepare the soluble chelator and thus its use here ensured that the added chelator would be retained within the membrane device as in contact with the culture medium from within a semi-permeable membrane, i.e., the dialysis tubing. […] All four test cultures were inoculated with the yeast and growth was monitored at intervals in the test cultures by optical density measurement at 600 nm over a 120 hr test period.

Test [6] concerns Candida albicans ATCC 10231. The test can be described thus: Fluconazole MIC (80% growth inhibition) with soluble chelator. Type of test: cell-based. The procedure: Candida albicans ATCC 10231, yeast cells, as grown in defined medium with no additional added Fe as in example 18, were tested in the same media for their sensitivities to fluconazole, an anti-cellular agent as proto-typical of the azole class of antibiotics that are commonly used to control fungal growth and pathogenesis in humans and with fluconazole plus the soluble chelating composition, as prepared in Example 4. Fluconazole as a typical member of the azole class of anti-fungal antibiotics that function by inhibiting sterol synthesis.

Test [7] relates to Candida albicans ATCC 10231. The test can be described thus: Challenge growth test, sorbate and chelator within a semi-permeable device. Particulars: sorbate […] with 0.3 mg soluble chelator (example 4) in the semi-permeable device. The test is classed as cell-based. An excerpt:
In one such culture, only medium was present as a control. […] The chelator was not added directly to the culture medium but was provided as within a dialysis membrane within the culture medium, such that only the external surfaces of the dialysis membrane device were in contact with the bulk of the culture medium, the chelator being within the membrane bag. The dialysis membrane was of the same type that had been used to prepare the soluble chelator and thus its use here ensured that the added chelator would be retained within the membrane device as in contact with the culture medium from within a semi-permeable membrane, i.e., the dialysis tubing. Thus the chelator would not be in direct physical contact with the yeast cells while any iron or sorbate or other low molecular weight media constituents or low molecular weight yeast cell products in the test milieu could diffuse in or out of the semi-permeable device. In a fourth test, 0.3 mg soluble chelator within a similar dialysis bag was added but sorbate was not added to the medium. All four test cultures were inoculated with the yeast and growth was monitored at intervals in the test cultures by optical density measurement at 600 nm over a 120 hr test period.

For test [8], the system named is Candida albicans ATCC 10231. Put plainly: Preservative agent MIC (80% inhibition) challenge test with soluble chelator. The test is classed as cell-based.

Read-outs that look alike come from different tables or passages of the source. Where only a bound is given, the exact number is not on record here.

For the compound `CC(=O)N(O)CCCCCNC(=O)CCC(=O)N(O)CCCCCNC(=O)CCC(=O)N(O)CCCCCN` [DESFERAL, deferoxamine], the MIC was 0.59 µg/mL in test [1] (treated RPMI with 0.09 μM Fe); 0.009 µg/mL in test [1] (treated RPMI with 0.02 μM Fe, read-out: MIC); above 300 µg/mL in test [2] (Pseudomonas aeruginosa, treated RPMI with 0.02 μM Fe, read-out: MIC); above 300 µg/mL in test [2] (treated RPMI with 0.09 μM Fe); above 300 µg/mL in test [3] (treated RPMI with 0.02 μM Fe); above 300 µg/mL in test [3] (treated RPMI with 0.09 μM Fe).

For `Cc1c(O)c(=O)ccn1CCN` [AHMP, 1-aminoethyl-3-hydroxy-2-methyl-4(1H)-pyridinone], the “growth of the yeast compared to control” value in test [4] is given as “did not substantially restrict growth”.

`Cc1occc(=O)c1O` [3-hydroxy-2-methyl-4-pyrone]: the “growth of the yeast compared to control” value in test [4] was “did not substantially restrict growth”.

Regarding `OC(Cn1cncn1)(Cn1cncn1)c1ccc(F)cc1F` [Fluconazole], the “yeast growth (OD 600 nm over 120 hr)” value in test [5] (fluconazole 0.083 μg/ml alone) is “only delayed and partially restricted yeast growth”; in test [5] (fluconazole 0.083 μg/ml with 0.3 mg soluble chelator (example 4) in the semi-permeable device), “prevented growth completely”. The MIC in test [6] (ATCC10231, 96 h, Fluconazole alone, 4 d) was above 6 µg/mL; in test [6] (ATCC10231, 96 h, plus 25 μg/ml soluble chelator (example 4), 4 d) it was below 0.05 µg/mL; in test [6] (ATCC10231, 96 h, plus Fe-saturated soluble chelator, 4 d), above 6 µg/mL; in test [6] (ATCC10231, 96 h, plus […] soluble chelator (Example 4), 4 d), below 0.05 µg/mL; in test [6] (ATCC10231, 240 h, Fluconazole alone, 10 d) it was above 6 µg/mL; in test [6] (ATCC10231, 240 h, plus 25 μg/ml soluble chelator (example 4), 10 d), below 0.05 µg/mL. Also, the MIC in test [6] (ATCC10231, 240 h, plus Fe-saturated soluble chelator, 10 d) is above 6 µg/mL; in test [6] (ATCC10231, 240 h, plus […] soluble chelator (Example 4), 10 d), 0.05 µg/mL; in test [6] (ATCC10231, Fluconazole alone, 42 d) it was above 6 µg/mL; in test [6] (ATCC10231, plus 25 μg/ml Soluble chelator (Example 4), 42 d), below 0.05 µg/mL; in test [6] (ATCC10231, plus Fe-saturated soluble chelator, 42 d), above 6 µg/mL; in test [6] (ATCC10231, plus […] soluble chelator (Example 4), 42 d) it was 0.19 µg/mL.

For the compound `C/C=C/C=C/C(=O)[O-].[K+]` [Sorbate, potassium sorbate], the “yeast growth (OD 600 nm over 120 hr)” value in test [7] is given as “prevented growth completely”. Further, the MIC was below 20 µg/mL in test [8] (ATCC10231, 48 h, read-out: Sorbate or Paraben MIC, plus soluble chelating composition (Example 4) 25 μg/ml, 2 days); below 20 µg/mL in test [8] (ATCC10231, 48 h, read-out: Sorbate or Paraben MIC, plus soluble chelating composition (Example 4) […], 2 days); 120 µg/mL in test [8] (ATCC10231, 48 h, read-out: Sorbate or Paraben MIC, preservative alone, 2 days); 30 µg/mL in test [8] (ATCC10231, 240 h, read-out: Sorbate or Paraben MIC, plus soluble chelating composition (Example 4) 25 μg/ml, 10 days); below 20 µg/mL in test [8] (ATCC10231, 240 h, read-out: Sorbate or Paraben MIC, plus soluble chelating composition (Example 4) […], 10 days); 250 µg/mL in test [8] (ATCC10231, 240 h, read-out: Sorbate or Paraben MIC, preservative alone, 10 days).
